{"source": "patent US12653805B2", "about": "“Targeting LASP1, eIF4A1, eIF4B and CXC4 with modulators and combinations thereof for cancer therapy” (The University of Toledo, priority 2019, dated 2026)", "key": {"[1]": {"test_system": "MDA-MB-231 cells", "details": "cited from earlier work"}, "[2]": {"test_system": "LASP1-eIF4A interaction in 231S cells", "test": "Proximity ligation assay (PLA) of LASP1-eIF4A interaction", "assay_type": "cell-based, human", "description": "The Duolink In Situ Orange Fluorescent kit (Sigma/Aldrich, St. Louis, Mo., Cat. No. DUO92102-1KT) was employed to detect the endogenous interaction between LASP1 and eIF4A in situ in 231S cells. The PLA was performed according to the manufacturer's instructions using a rabbit eIF4A1 antibody (Cohesion Biosciences, London, Purley, Cat. No. CQA1180) and a mouse LASP1 antibody (Biolegend, San Diego, Calif., Cat. No. 909301). The single Ab control condition represents the PLA reaction with only the LASP1 antibody. In addition, cells were stained with phalloidin (Life Technologies, Carlsbad, Calif., Cat. No. A12379) and nuclei with DRAQ5 (Thermo Scientific, Rockford, Ill., Cat No. 62251). Cells were stimulated and inhibited as described. Moreover, cells were fixed, stained, and permeabilized with standard methods. The images were acquired by two-photon confocal microscopy and processed with Leica Application Suite X software (Leica, Wetzlar, Germany). Quantification of the interaction dots was performed using ImageJ."}, "[3]": {"test_system": "231S LASP1 NS cells", "test": "Western blotting of eIF4A-dependent genes after CXCL12 stimulation", "assay_type": "cell-based, human", "details": "control-silenced (LASP1 NS) 231S cells, 10-20 nM CXCL12", "description": "Cell lysates were prepared and quantified as described. Western blots were incubated with the following 1° Abs: Cyclin D1 (Cell Signaling Technology, Danvers, Mass., Cat. No. 2922), eIF4A C32B4 (Cell Signaling Technology, Danvers, Mass., Cat. No. 2013), eIF4B 1F5 (Cell Signaling Technology, Danvers, Mass., Cat. No. 13088), p-eIF4B S422 (Thermo Scientific, Rockford, Ill., Cat No. PA5-38362), eIF4E C46H6 (Cell Signaling Technology, Danvers, Mass., Cat. No. 2067), eIF4G C45A4 (Cell Signaling Technology, Danvers, Mass., Cat. No. 2469), GST 26H1 (Cell Signaling Technology, Danvers, Mass., Cat. No. 2624), LASP1 8C6 (Biolegend, San Diego, Calif., Cat. No. 909301), MDM2 SMP14 (Santa Cruz Biotechnology, Dallas, Tex., Cat. No. sc-965), PDCD4 D29C6 (Cell Signaling Technology, Danvers, Mass., Cat. No. 9535), p-PDCD4 S67 (Sigma-Aldrich, St. Louis, Mo., Cat. No. P0072), ROCK1 C8F7 (Cell Signaling Technology, Danvers, Mass., Cat. No. 4035), survivin 71G4B7 (Cell Signaling Technology, Danvers, Mass., Cat. No. 2808), 4E-BP1 53H11 (Cell Signaling Technology, Danvers, Mass., Cat. No. 9644), p-4E-BP1 Thr70 (Cell Signaling Technology, Danvers, Mass., Cat. No. 9455), and β-tubulin D66 (Sigma/Aldrich, St. Louis, Mo., Cat. No. T0198). […]"}, "[4]": {"test_system": "LASP1-eIF4A/eIF4B association in 231S cells", "test": "Co-immunoprecipitation of LASP1 with eIF4A/eIF4B", "assay_type": "cell-based, human", "description": "Subconfluent 231S cells were serum-starved for 1 hour and stimulated with 10-20 nM CXCL12 (PeptroTech, Rocky Hill, N.J., Cat. No. 300-28A) over different time points. […] Total protein in the clarified lysate was quantified using a Bradford protein assay (Bio-Rad, Hercules, Calif., Cat. No. 5000006). 1 mg of total protein lysate was employed in all immunoprecipitation reactions. eIF4B was immunoprecipitated by using 2 μg of eIF4B antibody (Cell Signaling Technology, Danvers, Mass., Cat. No. 13088). Mouse (G3A1) mAb IgG1 Isotype Control (Cell Signaling Technology, Danvers, Mass., Cat. No. 5415) served as the mock control. Next, eIF4A was immunoprecipitated using 2 μg of eIF4A1 antibody (Cohesion Biosciences, London, Purley, Cat. No. CQA1180). His-Tag (D3L10) XP® Rabbit mAb (Cell Signaling Technology, Danvers, Mass., Cat. No. 12698) was employed for the mock condition. Finally, in the reciprocal Co-IP, LASP1 was immunoprecipitated by using 2 μg LASP1 antibody (Biolegend, San Diego, Calif., Cat. No. 909301). As in the eIF4B Co-IP, mouse (G3A1) IgG1 isotype mAb was employed as the mock control. […] Proteins of interest were analyzed by sodium dodecyl sulfate-polyacrylamide gel electrophoresis (SDS-PAGE) and Western blotting."}, "[5]": {"test_system": "eIF4F complex in 231S cells", "test": "m7GTP pulldown assay (eIF4F complex)", "assay_type": "cell-based, human", "description": "231S cells were serum starved for 1 h and cells were stimulated (and prepared) as described in the co-immunoprecipitation section. 100 nM AMD3465 (CXCR4 antagonist, Sigma-Aldrich, St. Louis, Mo., Cat. No. SML1433-5MG) was incubated 30 min prior to stimulation. 1 mg of total protein lysate in 1 mL of Co-IP buffer was incubated with 25 μL of m7-GTP agarose beads overnight at 4° C. (Jena Biosciences, Jena, Germany, Cat. No. AC-155S). Following incubation, beads were washed with Co-IP buffer. Protein was eluted and analyzed by SDS-PAGE and Western blotting."}, "[6]": {"test_system": "CXCR4 signaling in 231S cells", "test": "Western blotting of phosphorylation of eIF4B, PDCD4, 4E-BP1 after CXCR4 activation", "assay_type": "cell-based, human", "description": "Cell lysates were prepared and quantified as described. Western blots were incubated with the following 1° Abs: Cyclin D1 (Cell Signaling Technology, Danvers, Mass., Cat. No. 2922), eIF4A C32B4 (Cell Signaling Technology, Danvers, Mass., Cat. No. 2013), eIF4B 1F5 (Cell Signaling Technology, Danvers, Mass., Cat. No. 13088), p-eIF4B S422 (Thermo Scientific, Rockford, Ill., Cat No. PA5-38362), eIF4E C46H6 (Cell Signaling Technology, Danvers, Mass., Cat. No. 2067), eIF4G C45A4 (Cell Signaling Technology, Danvers, Mass., Cat. No. 2469), GST 26H1 (Cell Signaling Technology, Danvers, Mass., Cat. No. 2624), LASP1 8C6 (Biolegend, San Diego, Calif., Cat. No. 909301), MDM2 SMP14 (Santa Cruz Biotechnology, Dallas, Tex., Cat. No. sc-965), PDCD4 D29C6 (Cell Signaling Technology, Danvers, Mass., Cat. No. 9535), p-PDCD4 S67 (Sigma-Aldrich, St. Louis, Mo., Cat. No. P0072), ROCK1 C8F7 (Cell Signaling Technology, Danvers, Mass., Cat. No. 4035), survivin 71G4B7 (Cell Signaling Technology, Danvers, Mass., Cat. No. 2808), 4E-BP1 53H11 (Cell Signaling Technology, Danvers, Mass., Cat. No. 9644), p-4E-BP1 Thr70 (Cell Signaling Technology, Danvers, Mass., Cat. No. 9455), and β-tubulin D66 (Sigma/Aldrich, St. Louis, Mo., Cat. No. T0198). Following primary incubation, Western blots were incubated with Goat anti-Mouse IgG (H+L) Superclonal™ Secondary Ab conjugated to HRP (Thermo Scientific, Rockford, Ill., Cat No. A28177) or Goat anti-Rabbit IgG (H+L) Superclonal™ Secondary Ab conjugated to HRP (Thermo Scientific, Rockford, Ill., Cat No. A27036). Finally, blots were developed with Amersham™ ECL™ Prime Western Blotting Detection Reagent (GE Healthcare Life Sciences, Pittsburgh, Pa., Cat. No. RPN2232) and HyBlot ES™ Autoradiography Film (Denville Scientific, Swedesboro, N.J., Cat. No. E3212). Densitometry of the Western blots was performed using ImageJ. Calculation of fold change is given in the figure legend for each experiment."}}, "data": [{"compound": "COC(=O)[C@H]1[C@@H](O)[C@@]2(O)c3c(OC)cc(O[C@@H]4O[C@@H]([C@H](O)CO)CO[C@H]4OC)cc3O[C@@]2(c2ccc(OC)cc2)[C@@H]1c1ccccc1", "note": "[Silvestrol]", "values": [{"measurement": "IC50", "setting": "[1]", "value": 60, "unit": "nM"}]}, {"compound": "CXCL12: ligand for CXCR4 (PeproTech), used to stimulate cells", "values": [{"measurement": "stimulation of the interaction between LASP1 and eIF4A", "setting": "[2]; CXCL12 5 min vs unstimulated", "value": 3, "unit": "fold"}, {"measurement": "LASP1-eIF4A interaction dots (interactions/cell)", "setting": "[2]; CXCL12 incubation for 5 min (20 nM), unstimulated 11.6±6.5", "value": "118±58.3", "unit": "dots"}, {"measurement": "protein levels of CCND1, BIRC5, Mdm2, and ROCK1", "setting": "[3]", "value": "considerable increases"}, {"measurement": "increase in association of LASP1 with eIF4B (reciprocal Co-IP)", "setting": "[4]; 20 nM CXCL12, 0 min set to 1", "value": 7.5, "unit": "fold"}, {"measurement": "association of endogenous LASP1 and eIF4A1 (reciprocal Co-IP)", "setting": "[4]; 20 nM CXCL12, 5 min, 0 min set to 1", "value": 19.1, "unit": "fold"}, {"measurement": "eIF4G-eIF4E interaction (eIF4G recruitment)", "setting": "[5]; 20 nM CXCL12, 20 min", "value": 2.2, "unit": "fold"}, {"measurement": "association of endogenous LASP1 with eIF4E", "setting": "[5]; 20 nM CXCL12, peak at 5 min", "value": 2.2, "unit": "fold"}, {"measurement": "eIF4G-eIF4E interaction (eIF4G recruitment)", "setting": "[5]; 20 nM CXCL12, peak at 5 min", "value": 4.4, "unit": "fold"}, {"measurement": "phosphorylation of PDCD4 (pS67)", "setting": "[6]; CXCL12, 5 min", "value": 3.3, "unit": "fold"}, {"measurement": "phosphorylation of PDCD4 (pS67)", "setting": "[6]; CXCL12, peak at 10 min", "value": 3.9, "unit": "fold"}]}]}
